Laboratory results taken from US4276289A, “Antitumor glycosides, their preparation and use” (Farmitalia Carlo Erba, S.p.A., priority 1979, dated 1981).
In brackets after ≈: the same amount, converted by molar mass. Where two headings read alike, the source gives them in different places.

Experiments:
[1] = test system: HeLa cells; assay: in vitro test against HeLa cells; assay type: cell-based; conditions: Homo sapiens, read-out: ID50 on HeLa Cells
Description: The biological activity of the compounds according to the invention was tested in vitro against HeLa cells in comparison with daunorubicin and doxorubicin.
Compound ID50 on HeLa Cells (ng/ml)

[2] = test system: P 388 leukemia; assay: in vivo activity against P 388 leukemia (treatment i.p. on day 1 after tumor implantation)

Row | Compound | IC50 ([1]; in vitro, HeLa cells) [µg/mL] | LTS (long term survivors) ([2]; 2.9 mg/kg) | Toxicity ([2]; 2.9 mg/kg) | LTS (long term survivors) ([2]; 4.4 mg/kg) | T/C % ([2]; 4.4 mg/kg) [%] | Toxicity ([2]; 4.4 mg/kg) | LTS (long term survivors) ([2]; 6.6 mg/kg) | T/C % ([2]; 6.6 mg/kg) [%] | Toxicity ([2]; 6.6 mg/kg) | IC50 ([1]; HeLa) [µg/mL] | other results
1 | COc1cccc2c1C(=O)c1c(O)c3c(c(O)c1C2=O)C[C@@](O)(C(=O)CO)C[C@@H]3O[C@H]1C[C@@H](N)[C@@H](OC)[C@H](C)O1 [3',4'-diepi-4'-O-methyl doxorubicin, 3',4'-diepi-4'-O-methyl-doxorubicin] | 0.0059 (≈ 0.0106 µM) | 0/10 | 2/10 | 0/10 | 109 | 10/10 | 0/10 | 76 | 10/10 |  | LTS (long term survivors) ([2]; 1.9 mg/kg): 0/10; T/C % ([2]; 1.9 mg/kg): 180%; Toxicity ([2]; 1.9 mg/kg): 0/10; T/C % ([2]; 2.9 mg/kg): 200%
2 | COc1cccc2c1C(=O)c1c(O)c3c(c(O)c1C2=O)C[C@@](O)(C(C)=O)C[C@@H]3O[C@H]1C[C@@H](N)[C@@H](OC)[C@H](C)O1 [3',4'-diepi-4'-O-methyl daunorubicin, 3',4'-diepi-4'-O-methyl-daunorubicin] | 0.036 (≈ 0.0665 µM) |  |  |  |  |  | 0/8 | 145 | 0/8 |  | LTS (long term survivors) ([2]; 10 mg/kg): 0/8; T/C % ([2]; 10 mg/kg): 154%; Toxicity ([2]; 10 mg/kg): 0/8; LTS (long term survivors) ([2]; 15 mg/kg): 0/18; Toxicity ([2]; 15 mg/kg): 0/18; LTS (long term survivors) ([2]; 22 mg/kg): 0/10; T/C % ([2]; 22 mg/kg): 222%; Toxicity ([2]; 22 mg/kg): 0/10; LTS (long term survivors) ([2]; 33 mg/kg): 1/10; T/C % ([2]; 33 mg/kg): 231%; Toxicity ([2]; 33 mg/kg): 2/10
3 | COc1cccc2c1C(=O)c1c(O)c3c(c(O)c1C2=O)C[C@@](O)(C(C)=O)C[C@@H]3O[C@H]1C[C@H](N)[C@H](O)[C@H](C)O1 [Daunorubicin, reference compound] |  | 0/18 | 0/18 | 0/18 |  | 0/18 | 0/8 | 163 | 3/8 | 0.014 (≈ 0.0265 µM) | 
4 | COc1cccc2c1C(=O)c1c(O)c3c(c(O)c1C2=O)C[C@@](O)(C(=O)CO)C[C@@H]3O[C@H]1C[C@H](N)[C@H](O)[C@H](C)O1 [Doxorubicin, reference compound] |  |  |  | 2/10 | 209 | 0/8 | 0/10 | 233 | 0/8 | 0.0095 (≈ 0.0175 µM) | 
